The target in the assay is T1, Human recombinant sPLA2-V (Homo sapiens, UniProt P39877).
T1 sequence (P39877 21-138): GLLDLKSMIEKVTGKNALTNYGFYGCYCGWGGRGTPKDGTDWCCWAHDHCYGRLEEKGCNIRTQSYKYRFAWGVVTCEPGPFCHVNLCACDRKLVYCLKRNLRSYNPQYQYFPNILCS
The experiment in a line: sPLA2-V activity assay.

Broadly, the IC50 is the point on the concentration scale where inhibition reaches its midpoint. Take `C[C@@H]1C[C@H]2[C@@H]3CCC4=CC(=O)C=C[C@]4(C)[C@@]3(F)[C@@H](O)C[C@]2(C)[C@@]1(O)C(=O)CO` [Dexamethasone]: the concentration for half-maximal inhibition (IC50) came to 650 ± 150 nM.

These data come from publication PMC4172049 (Drug Design, Development and Therapy, 2014).
